Test results taken from US4108857A, “Imidazolylmethyl methanobenzazocines” (Sterling Drug Inc., priority 1977, dated 1978).
In brackets after ≈: the same amount, converted by molar mass. Read-outs that look alike come from different tables or passages of the source.

Assays:
mice [1] = test: psychomotor activity studies in mice; type: in vivo
acute toxicity, rat = details: in vivo; for LD50 at 168 h: 7 day
Experimental: (§1) In a toxicology study, monkeys were medicated orally with 5 mg./kg. and 25 mg./kg. of the product of Example 1A each day for 5 days. […] There was considerable variability among the monkeys in the magnitude of the response. Symptoms lasted 2 to 5 hours. […] Blood SGO-T, alkaline phosphatase, and BUN were all normal.

[2] = precipitation on gradual pH adjustment of the aqueous solution; type: physicochemical; details: 1 percent solution, N/10 sodium hydroxide solution, pH 7.0
[3] = test system: maximal electroshock seizures; test: anti-maximal electroshock seizure test in mice; type: in vivo; details: for ED50: Mus musculus
Experimental: The preferred species of this invention, i.e. the compounds having in free base form Formula II, are useful as analgesic agents administered orally or parenterally to humans. […] In the anti-maximal electroshock seizure test, the compounds were administered intraperitoneally or perorally 30 or 90 minutes prior to the application of 50 milliamperes of alternating current through corneal electrodes. Shock duration was 0.3 second. The criterion for anticonvulsant activity was the absence of the tonic hind leg extensor component of the seizure. In the anti-maximal pentylenetetrazol seizure test, the compounds were given intraperitoneally 30 or 90 minutes prior to the rapid intravenous injection of 50 mg. per kg. of pentylenetetrazol. Failure to display tonic hind leg extensor seizures was again the criterion for drug action. Representative results, expressed as ED50 (mg./kg.), which were obtained with my new compounds in these two tests are as follows: […]

mice [4] = test: diuresis in mice; type: in vivo; details: 12.5 mg./kg. and 25 mg./kg. i.p.
mice [5] = test: inclined screen test in mice (skeletal muscle relaxation); type: in vivo; details: Mus musculus
acute toxicity, mouse = details: in vivo; for LD50 at 168 h: 7 day
Experimental: as §1

monkeys = test: toxicology study in monkeys (oral, daily for 5 days); type: in vivo
Experimental: as §1

[6] = test system: maximal pentylenetetrazol seizures; test: anti-maximal pentylenetetrazol seizure test in mice; type: in vivo; details: Mus musculus
[7] = test system: minimal pentylenetetrazol seizures; test: anticonvulsant test against minimal pentylenetetrazol seizures; type: in vivo, mice; details: Mus musculus, oral, pentylenetetrazol 32.5 mg./kg. intravenously
Experimental: In anticonvulsant studies, against minimal pentylenetetrazol seizures, wherein the dose of pentylenetetrazol was only 32.5 mg./kg. (intravenously) and the ensuing convulsions were clonic, without a tonic hind leg extensor component, the oral ED50 values were: 30 minutes post-medication, 15 ± 4 mg./kg.; 90 minutes post-medication, 37 ± 6 mg./kg.

[8] = solubility in water or aqueous acid; details: dilute hydrochloric acid
[9] = precipitation on diluting ethyl alcohol solution with four volumes of water; type: physicochemical; details: 5 percent (w/v) solution in 95 percent ethyl alcohol
pH of solution = type: physicochemical; details: hydrochloride; 0.42 ml. of N/2 hydrochloric acid and 0.58 ml. of water
humans = test: analgesic use in humans; type: in vivo
Experimental: For example, administered orally, the effective dosage of the racemic cis form of this compound in humans has been determined to be about 0.1 to 0.5 mg. of drug per kg. of body weight per day, at 5-25 mg. per dose; preferably about 0.2 to 0.4 mg./kg./day, for instance a total of […] at 20 mg./dose.

[10] = iv, I.V., read-out: LD50 ± s.e.
[11] = 5 mg./kg. orally each day for 5 days

**Q.** What does the source list for `C[C@H]1[C@H]2Cc3ccccc3[C@]1(C)CCN2CC1CC1` (relative stereo) [Example 1A, racemic 1,2,3,4,5,6-hexahydro-3-cyclopropylmethyl-cis-6,11-dimethyl-2,6-methano-3-benzazocine]?
**A.** toxic signs at high dose (mice [1]; 128 mg./kg. p.o.): Ataxia, loss of righting reflex, and death occurred; psychomotor activity pattern (mice [1]; 8-128 mg./kg. p.o.): stimulation at lower doses and depression at high doses; LD50 at 24 h (acute toxicity, rat; [10]): 17 ± 1 mg/kg; LD50 at 168 h (acute toxicity, rat; [10]): 17 ± 1 mg/kg; LD50 at 24 h (acute toxicity, rat; po, P.O., read-out: ALD50): 200 mg/kg; LD50 at 168 h (acute toxicity, rat; po, P.O., read-out: ALD50): 200 mg/kg; precipitation on adjusting to pH 7.0 [2]: no precipitate formed; Anti-Maximal Electroshock ED50 ([3]; IP, 90'): INACT.; ED50 ([3]; 0.5 h, IP, 30'): 11.2 ± 2 mg/kg; ED50 ([3]; 0.5 h, PO, 30'): 26.2 ± 7 mg/kg; ED50 ([3]; 1.5 h, PO, 90'): 35.5 ± 3 mg/kg; diuresis (mice [4]): significant diuresis; urine produced (mice [4]): dilute urine without electrolyte concentration; ED50 (mice [5]; 1 h, oral, sixty minutes after medication, read-out: dose at which 50 percent of the mice had fallen from a 60° inclined screen): 38.2 ± 11 mg/kg; ED50 (mice [5]; ip, intraperitoneal, read-out: ED50, 60° inclined screen): 17.2 mg/kg; LD50 at 24 h (acute toxicity, mouse; ip, I.P.): 65 ± 7 mg/kg; LD50 at 168 h (acute toxicity, mouse; ip, I.P.): 65 ± 7 mg/kg; LD50 at 24 h (acute toxicity, mouse; iv, I.V.): 20 ± 1 mg/kg; LD50 at 168 h (acute toxicity, mouse; iv, I.V.): 20 ± 1 mg/kg; LD50 at 24 h (acute toxicity, mouse; po, P.O.): 155 ± 17 mg/kg; LD50 at 168 h (acute toxicity, mouse; po, P.O.): 155 ± 17 mg/kg; symptoms (monkeys; [11]): Some ataxia with a decrease in activity; tolerability (monkeys; [11]): well tolerated; symptoms (monkeys; 25 mg./kg. orally each day for 5 days): more marked decrease in spontaneous activity along with ataxia and salivation; BUN (monkeys; oral): normal; Blood SGO-T (monkeys; oral): normal; alkaline phosphatase (monkeys; oral): normal; body weight (monkeys; oral): Some weight loss occurred; ED50 ([6]; 0.5 h, IP, 30'): 2.3 ± 7 mg/kg; ED50 ([6]; 0.5 h, PO, 30'): 3.3 ± 0.8 mg/kg; ED50 ([6]; 1.5 h, IP, 90'): 5.3 ± 10 mg/kg; ED50 ([6]; 1.5 h, PO, 90'): 6.2 ± 1 mg/kg; ED50 ([7]; 0.5 h, 30 minutes post-medication): 15 ± 4 mg/kg; ED50 ([7]; 1.5 h, 90 minutes post-medication): 37 ± 6 mg/kg; solubility [8]: 10000 µg/mL (≈ 39.2 mM); precipitation on dilution with four volumes of water [9]: a precipitate formed; pH of 1 percent solution in dilute hydrochloric acid (pH of solution): 1.5; psychotomimetic effects in humans (humans; analgesically effective doses): very few, if any, psychotomimetic effects; central nervous system effects in humans (humans; effective therapeutic analgesic doses): only minimal central nervous system effects; analgesic activity in humans (humans; humans): strong analgesic
